In ChEMBL document CHEMBL3885861, “Open TG-GATES”:

Organism: Rattus norvegicus
Assay: Open TG-GATES - Regimen: Single
Type: toxicity, organism-based, Sprague-Dawley
Set-up: regimen Single, gender Male, age 6 weeks
Conditions: in vivo, po, 100 mg/kg, route gavage, dose level Middle; for APTT / Bas / Eos / Fbg / Hb / Ht / Lym / MCH / MCHC / MCV / Mono / Neu / PT / Plat / RBC / Ret / WBC: tissue Blood; for KIDNEY_L / KIDNEY_R / KIDNEY_TOTAL: tissue Kidney; for LIVER: tissue Liver; for A/G / ALP / ALT / AST / BUN / CRE / Ca / Cl / DBIL / GLC / IP / K / LDH / Na / PL / RALB / TBIL / TC / TG / TP / gamma-GTP: tissue Plasma

## CCOC(=O)C(C)(C)Oc1ccc(Cl)cc1 [CLOFIBRATE]
3 h
  TERMINAL_BW: 227.5 g
  APTT: 18.9 s
  Bas: 0%
  Eos: 1%
  Fbg: 231.4 mg/dL
  Hb: 13.6 g/dL
  Ht: 39%
  Lym: 76.6%
  MCH: 20.9 pg
  MCHC: 34.8%
  MCV: 60.1 fL
  Mono: 2.6%
  Neu: 19.2%
  PT: 12.3 s
  Plat: 126.5 x10_4/uL
  RBC: 649.6 x10_4/ul
  Ret: 7.1%
  WBC: 87.8 x10_2/uL
  KIDNEY_L: 1 g
  KIDNEY_R: 1 g
  KIDNEY_TOTAL: 1.9 g
  LIVER: 9.9 g
  A/G: 1.6
  ALP: 1012.4 IU/L
  ALT: 36.8 IU/L
  AST: 68.2 IU/L
  BUN: 10 mg/dL
  CRE: 0.3 mg/dL
  Ca: 10.7 mg/dL
  Cl: 102.6 meq/L
  DBIL: 0.2 mg/dL
  GLC: 201.6 mg/dL
  IP: 9 mg/dL
  K: 3.8 meq/L
  LDH: 203.6 IU/L
  Na: 139.6 meq/L
  PL: 157.6 mg/dL
  RALB: 3.5 g/dL
  TBIL: 0.3 mg/dL
  TC: 75.2 mg/dL
  TG: 121 mg/dL
  TP: 5.7 g/dL
  gamma-GTP: 0.4 IU/L
6 h
  TERMINAL_BW: 227.2 g
  APTT: 18.9 s
  Bas: 0%
  Eos: 1%
  Fbg: 232.6 mg/dL
  Hb: 13.7 g/dL
  Ht: 39.5%
  Lym: 79.6%
  MCH: 20.8 pg
  MCHC: 34.6%
  MCV: 60.1 fL
  Mono: 3.2%
  Neu: 16%
  PT: 12.5 s
  Plat: 132.6 x10_4/uL
  RBC: 657.6 x10_4/ul
  Ret: 7.3%
  WBC: 89.7 x10_2/uL
  KIDNEY_L: 1 g
  KIDNEY_R: 1 g
  KIDNEY_TOTAL: 2 g
  LIVER: 10.1 g
  A/G: 1.6
  ALP: 987.8 IU/L
  ALT: 29.8 IU/L
  AST: 62.8 IU/L
  BUN: 9.2 mg/dL
  CRE: 0.4 mg/dL
  Ca: 10.9 mg/dL
  Cl: 102.4 meq/L
  DBIL: 0.1 mg/dL
  GLC: 196.2 mg/dL
  IP: 9.4 mg/dL
  K: 4.2 meq/L
  LDH: 223.6 IU/L
  Na: 139 meq/L
  PL: 146.8 mg/dL
  RALB: 3.5 g/dL
  TBIL: 0.2 mg/dL
  TC: 73.8 mg/dL
  TG: 106.4 mg/dL
  TP: 5.7 g/dL
  gamma-GTP: 0.6 IU/L
9 h
  TERMINAL_BW: 222.9 g
  APTT: 17.6 s
  Bas: 0%
  Eos: 1%
  Fbg: 227.4 mg/dL
  Hb: 13.3 g/dL
  Ht: 38.2%
  Lym: 80.2%
  MCH: 21 pg
  MCHC: 34.8%
  MCV: 60.5 fL
  Mono: 1.8%
  Neu: 16.6%
  PT: 12.9 s
  Plat: 137.6 x10_4/uL
  RBC: 630.2 x10_4/ul
  Ret: 7.4%
  WBC: 82.1 x10_2/uL
  KIDNEY_L: 1 g
  KIDNEY_R: 1 g
  KIDNEY_TOTAL: 2.1 g
  LIVER: 9.6 g
  A/G: 1.6
  ALP: 1028.4 IU/L
  ALT: 26.6 IU/L
  AST: 59.4 IU/L
  BUN: 9.8 mg/dL
  CRE: 0.4 mg/dL
  Ca: 10.4 mg/dL
  Cl: 101.4 meq/L
  DBIL: 0.088 mg/dL
  GLC: 206.4 mg/dL
  IP: 10.3 mg/dL
  K: 3.5 meq/L
  LDH: 182.4 IU/L
  Na: 140.2 meq/L
  PL: 120.4 mg/dL
  RALB: 3.4 g/dL
  TBIL: 0.1 mg/dL
  TC: 59.4 mg/dL
  TG: 73 mg/dL
  TP: 5.6 g/dL
  gamma-GTP: 0.6 IU/L
24 h
  TERMINAL_BW: 236 g
  APTT: 19.1 s
  Bas: 0%
  Eos: 1%
  Fbg: 223.8 mg/dL
  Hb: 13.6 g/dL
  Ht: 38.9%
  Lym: 79.8%
  MCH: 21.4 pg
  MCHC: 34.9%
  MCV: 61.4 fL
  Mono: 3.2%
  Neu: 15.4%
  PT: 12.6 s
  Plat: 131 x10_4/uL
  RBC: 633.6 x10_4/ul
  Ret: 7%
  WBC: 93.4 x10_2/uL
  KIDNEY_L: 1 g
  KIDNEY_R: 1 g
  KIDNEY_TOTAL: 2 g
  LIVER: 12 g
  A/G: 1.6
  ALP: 871 IU/L
  ALT: 36 IU/L
  AST: 65.6 IU/L
  BUN: 14.8 mg/dL
  CRE: 0.4 mg/dL
  Ca: 10.9 mg/dL
  Cl: 100.8 meq/L
  DBIL: 0.088 mg/dL
  GLC: 202 mg/dL
  IP: 7.5 mg/dL
  K: 3.7 meq/L
  LDH: 219.2 IU/L
  Na: 139.6 meq/L
  PL: 134.2 mg/dL
  RALB: 3.4 g/dL
  TBIL: 0.1 mg/dL
  TC: 60.4 mg/dL
  TG: 106.4 mg/dL
  TP: 5.6 g/dL
  gamma-GTP: 1 IU/L
